Test results taken from patent publication US10519152B2, “Compounds and their use in treating cancer” (AstraZeneca AB, priority 2017, dated 2019).

Molecular target: T1, Estrogen Receptor (ERα) in MCF-7 human ductal carcinoma breast cell line (Homo sapiens, UniProt P03372)
T1 construct: endogenous in cells; host or cells: MCF-7
T1 sequence (P03372 1-595): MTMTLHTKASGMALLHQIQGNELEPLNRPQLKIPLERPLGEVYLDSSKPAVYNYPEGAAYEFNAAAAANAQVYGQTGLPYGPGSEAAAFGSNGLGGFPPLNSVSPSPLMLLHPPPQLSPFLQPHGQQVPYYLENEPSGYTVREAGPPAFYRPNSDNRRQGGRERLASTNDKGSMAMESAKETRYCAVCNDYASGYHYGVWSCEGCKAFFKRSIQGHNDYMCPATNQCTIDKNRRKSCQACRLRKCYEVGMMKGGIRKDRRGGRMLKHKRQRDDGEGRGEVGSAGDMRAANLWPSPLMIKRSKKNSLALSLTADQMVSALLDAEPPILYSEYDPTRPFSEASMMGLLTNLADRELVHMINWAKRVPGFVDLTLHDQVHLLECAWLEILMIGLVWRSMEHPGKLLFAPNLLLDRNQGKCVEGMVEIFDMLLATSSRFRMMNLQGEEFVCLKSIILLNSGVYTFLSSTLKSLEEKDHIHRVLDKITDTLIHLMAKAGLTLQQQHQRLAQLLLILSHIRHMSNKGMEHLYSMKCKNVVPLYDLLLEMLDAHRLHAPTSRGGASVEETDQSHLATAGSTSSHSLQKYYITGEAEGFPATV
Assay: MCF-7 ER degradation assay (cell based immuno-fluorescence)
Details: MCF-7 cells; for ER degradation ≥ 90% at 0.3 μM: ER degradation by fulvestrant at 0.3 μM is defined as 100%; for DC50: 18-22 hours incubation, 50% reduction of ERα expression, single experiment or average of two or more, read-out: MCF-7 ER degradation IC50
Summary of the method: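 MCF-7 human ductal carcinoma breast cells were seeded at 3.75×10^4 cells per mL (40 μL per well) in 384 well plates with phenol red free DMEM containing 2 mM L-Glutamine and 5% (v/v) Charcoal/Dextran treated foetal calf serum. After overnight culture, compounds were acoustically dispensed, incubated 18-22 hours, then cells were formaldehyde-fixed and immunostained for ERα.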

Row | Compound | ER degradation ≥ 90% at 0.3 μM | DC50
1 | Cc1ncsc1-c1ccc(CNC(=O)[C@@H]2C[C@@H](O)CN2C(=O)[C@@H](NC(=O)COCCOCCOCCOc2cc(F)c([C@@H]3c4[nH]c5ccccc5c4C[C@@H](C)N3CC3(F)CC3)c(F)c2)C(C)(C)C)cc1 [Example 77, (2S,4R)-1-((S)-2-(tert-Butyl)-14-(3,5-difluoro-4-((1R,3R)-2-((1-fluorocyclopropyl)methyl)-3-methyl-2,3,4,9-tetrahydro-1H-pyrido[3,4-b]indol-1-yl)phenoxy)-4-oxo-6,9,12-trioxa-3-azatetradecanoyl)-4-hydroxy-N-(4-(4-methylthiazol-5-yl)benzyl)pyrrolidine-2-carboxamide] | •• | 1 nM
2 | Cc1ncsc1-c1ccc(CNC(=O)[C@@H]2C[C@@H](O)CN2C(=O)[C@@H](NC(=O)COCCOCCOCCCCNC(=O)c2cc(F)c([C@@H]3c4[nH]c5ccccc5c4C[C@@H](C)N3CC(C)(C)F)c(F)c2)C(C)(C)C)cc1 [Example 83, (2S,4R)-1-((S)-17-(tert-Butyl)-1-(3,5-difluoro-4-((1R,3R)-2-(2-fluoro-2-methylpropyl)-3-methyl-2,3,4,9-tetrahydro-1H-pyrido[3,4-b]indol-1-yl)phenyl)-1,15-dioxo-7,10,13-trioxa-2,16-diazaoctadecan-18-oyl)-4-hydroxy-N-(4-(4-methylthiazol-5-yl)benzyl)pyrrolidine-2-carboxamide] | •• | 0.6 nM
3 | Cc1ncsc1-c1ccc(CNC(=O)[C@@H]2C[C@@H](O)CN2C(=O)[C@@H](NC(=O)COCCOCCOCCOc2cc(F)c([C@@H]3c4[nH]c5ccccc5c4C[C@@H](C)N3CC(F)(F)F)c(F)c2)C(C)(C)C)cc1 [Example 95, (2S,4R)-1-((S)-2-(tert-Butyl)-14-(3,5-difluoro-4-((1R,3R)-3-methyl-2-(2,2,2-trifluoroethyl)-2,3,4,9-tetrahydro-1H-pyrido[3,4-b]indol-1-yl)phenoxy)-4-oxo-6,9,12-trioxa-3-azatetradecanoyl)-4-hydroxy-N-(4-(4-methylthiazol-5-yl)benzyl)pyrrolidine-2-carboxamide] | •• | 0.4 nM
4 | Cc1ncsc1-c1ccc(CNC(=O)[C@@H]2C[C@@H](O)CN2C(=O)[C@@H](NC(=O)COCCOCCOCCNC(=O)/C=C/c2cc(F)c([C@@H]3c4[nH]c5ccccc5c4C[C@@H](C)N3CC(C)(C)F)c(F)c2)C(C)(C)C)cc1 [Example 63, (2S,4R)-1-((S,E)-2-(tert-butyl)-18-(3,5-difluoro-4-((1R,3R)-2-(2-fluoro-2-methylpropyl)-3-methyl-2,3,4,9-tetrahydro-1H-pyrido[3,4-b]indol-1-yl)phenyl)-4,16-dioxo-6,9,12-trioxa-3,15-diazaoctadec-17-enoyl)-4-hydroxy-N-(4-(4-methylthiazol-5-yl)benzyl)pyrrolidine-2-carboxamide, Trifluoroacetic Acid] | •• | 0.6 nM
5 | Cc1ncsc1-c1ccc(CNC(=O)[C@@H]2C[C@@H](O)CN2C(=O)[C@@H](NC(=O)COCCO[C@@H](C)[C@H](C)OCCOc2cc(F)c([C@@H]3c4[nH]c5ccccc5c4C[C@@H](C)N3CC(C)(C)F)c(F)c2)C(C)(C)C)cc1 [Example 82, (2S,4R)-1-((2S,10S,11S)-2-(tert-butyl)-14-(3,5-difluoro-4-((1R,3R)-2-(2-fluoro-2-methylpropyl)-3-methyl-2,3,4,9-tetrahydro-1H-pyrido[3,4-b]indol-1-yl)phenoxy)-10,11-dimethyl-4-oxo-6,9,12-trioxa-3-azatetradecanoyl)-4-hydroxy-N-(4-(4-methylthiazol-5-yl)benzyl)pyrrolidine-2-carboxamide] | •• | 0.2 nM
6 | Cc1ncsc1-c1ccc(CNC(=O)[C@@H]2C[C@@H](O)CN2C(=O)[C@@H](NC(=O)COCCCCOCCCOc2cc(F)c([C@@H]3c4[nH]c5ccccc5c4C[C@@H](C)N3CC(C)(C)F)c(F)c2)C(C)(C)C)cc1 [Example 93] | • | 0.9 nM
7 | Cc1ncsc1-c1ccc(CNC(=O)[C@@H]2C[C@@H](O)CN2C(=O)[C@@H](NC(=O)COCCOCCOCCCNC(=O)c2cc(F)c([C@@H]3c4[nH]c5ccccc5c4C[C@@H](C)N3CC(C)(C)F)c(F)c2)C(C)(C)C)cc1 [Example 84, (2S,4R)-1-((S)-16-(tert-Butyl)-1-(3,5-difluoro-4-((1R,3R)-2-(2-fluoro-2-methylpropyl)-3-methyl-2,3,4,9-tetrahydro-1H-pyrido[3,4-b]indol-1-yl)phenyl)-1,14-dioxo-6,9,12-trioxa-2,15-diazaheptadecan-17-oyl)-4-hydroxy-N-(4-(4-methylthiazol-5-yl)benzyl)pyrrolidine-2-carboxamide] | •• | 0.7 nM
8 | Cc1ncsc1-c1ccc(CNC(=O)[C@@H]2C[C@@H](O)CN2C(=O)[C@@H](NC(=O)c2cnn(CCOCCNC(=O)/C=C/c3cc(F)c([C@@H]4c5[nH]c6ccccc6c5C[C@@H](C)N4CC(C)(C)F)c(F)c3)c2)C(C)(C)C)cc1 [Example 64, 1-(2-(2-((E)-3-(3,5-difluoro-4-((1R,3R)-2-(2-fluoro-2-methylpropyl)-3-methyl-2,3,4,9-tetrahydro-1H-pyrido[3,4-b]indol-1-yl)phenyl)acrylamido)ethoxy)ethyl)-N—((S)-1-((2S,4R)-4-hydroxy-2-((4-(4-methylthiazol-5-yl)benzyl)carbamoyl)pyrrolidin-5-yl)-3,3-dimethyl-1-oxobutan-2-yl)-1H-pyrazole-4-carboxamide, Trifluoroacetic Acid] | • | 0.5 nM
9 | Cc1ncsc1-c1ccc(CNC(=O)[C@@H]2C[C@@H](O)CN2C(=O)[C@@H](NC(=O)COCCOCCOCCNC(=O)c2cc(F)c([C@@H]3c4[nH]c5ccccc5c4C[C@@H](C)N3CC(C)(C)F)c(F)c2)C(C)(C)C)cc1 [Example 91, (2S,4R)-1-((S)-15-(tert-Butyl)-1-(3,5-difluoro-4-((1R,3R)-2-(2-fluoro-2-methylpropyl)-3-methyl-2,3,4,9-tetrahydro-1H-pyrido[3,4-b]indol-1-yl)phenyl)-1,13-dioxo-5,8,11-trioxa-2,14-diazahexadecan-16-oyl)-4-hydroxy-N-(4-(4-methylthiazol-5-yl)benzyl)pyrrolidine-2-carboxamide] | •• | 0.3 nM
10 | Cc1ncsc1-c1ccc(CNC(=O)[C@@H]2C[C@@H](O)CN2C(=O)[C@@H](NC(=O)COCCCCCOc2cc(F)c([C@@H]3c4[nH]c5ccccc5c4C[C@@H](C)N3CC3(F)CC3)c(F)c2)C(C)(C)C)cc1 [Example 79, (2S,4R)-1-((S)-2-(2-((5-(3,5-difluoro-4-((1R,3R)-2-((1-fluorocyclopropyl)methyl)-3-methyl-2,3,4,9-tetrahydro-1H-pyrido[3,4-b]indol-1-yl)phenoxy)pentyl)oxy)acetamido)-3,3-dimethylbutanoyl)-4-hydroxy-N-(4-(4-methylthiazol-5-yl)benzyl)pyrrolidine-2-carboxamide] | • | 2 nM
